Format in all cases: functional
Test [1] relates to Rattus norvegicus. Nature of the test: Antidiabetic activity in STZ-induced diabetic rat model assessed as increase in liver glycogen at 20 mg/kg, po qd for 21 days.
The test system of test [2] is Rattus norvegicus. Put plainly: Antidiabetic activity in STZ-induced diabetic rat model assessed as reduction in glycosylated haemoglobin at 20 mg/kg, po qd for 21 days. Details: scale not given: the % may be the effect or the level left.
Test [3] concerns Rattus norvegicus. Nature of the test: Antidiabetic activity in STZ-induced diabetic rat model assessed as increase in muscle glycogen at 20 mg/kg, po qd for 21 days.
Test [4] relates to Rattus norvegicus. Nature of the test: Antidiabetic activity in STZ-induced diabetic rat model assessed as increase in glucose 6 phosphate dehydrogenase at 20 mg/kg, po qd for 21 days.
Test [5] deals with Rattus norvegicus. Nature of the test: Antidiabetic activity in STZ-induced diabetic rat model assessed as reduction in glucose-6-phosphatase at 20 mg/kg, po qd for 21 days. On the set-up: scale not given: the % may be the effect or the level left.
The test system of test [6] is Rattus norvegicus. Nature of the test: Antidiabetic activity in STZ-induced diabetic rat model assessed as increase in plasma insulin level at 20 mg/kg, po qd for 21 days.

The structures appear in SMILES notation.

In the case of `CC[C@H](CC[C@@H](C)[C@H]1CC[C@H]2[C@@H]3CC=C4C[C@@H](O)CC[C@]4(C)[C@H]3CC[C@]12C)C(C)C` [BETA-SITOSTEROL], the Activity with Rattus norvegicus [1] turned out to be 77.15%; with Rattus norvegicus [2] it was 66.96%; in the test with Rattus norvegicus [3], 76.86%; with Rattus norvegicus [4], 38.52%; in the test with Rattus norvegicus [5], 40.07%; with Rattus norvegicus [6], 69.05%.

Values taken from ChEMBL document CHEMBL1926541, “Molecular docking of γ-sitosterol with some targets related to diabetes” (2012).
